Experimental data reported in publication PMC9963121, “Development of Combretastatin A-4 Analogues as Potential Anticancer Agents with Improved Aqueous Solubility” (Molecules, 2023).
Structures can show the parent of a compound that is named as a salt.

Experiments:
AGS gastric cancer cell = test: MTT cell growth inhibition assay, AGS gastric cancer cells; assay type: cell-based; settings: Homo sapiens, mean ± SD of three experiments
Description: (§1) Initially, we designed and synthesised seven compounds—9a and 12a1–12a6—and evaluated the anticancer activity and aqueous solubility. We evaluated the cytotoxic effects of these stilbene nitrile analogues against a panel of four human cancer cell lines (HCT-116, BEL-7402, MCF-7 and AGS) and two human non-cancerous normal cell lines (L-02 and MCF-10A), using CA-4 as a control. The compounds were screened for aqueous solubility in 0.01 M PBS using a high throughput UV method. […] It is possible that the size of the nitrogen heterocycle had little effect on the activity of these compounds. […] The aqueous solubility of all the compounds 12a1–12a6 was higher than that of 9a, particularly that of 12a1 and 12a2 containing piperazine rings. […] Of the six compounds with improved aqueous solubility, 12a1 had the best activity.
(§2) All human cell lines were used in this study. AGS gastric cancer cell, BEL-7402 liver cancer cell, HCT-116 colorectal cancer cell, L-02 normal liver cell, MCF-7 breast cancer cell, and MCF-10A normal breast cell were initially purchased from American Type Culture Collection (ATCC, Manassas, VA, USA). RPMI-1640 media, DMEM and FBS, were provided by Gibco Company. The cells were maintained in DMEM or RPMI-1640, supplemented with 10% FBS, 100 IU/mL penicillin and […] streptomycin, and at 37 °C in a humidified atmosphere containing 5% CO2.
(§3) The experiment was carried out according to the method of reference.

MCF-7 breast cancer cell = test: MTT cell growth inhibition assay, MCF-7 breast cancer cells; assay type: cell-based; settings: Homo sapiens, MCF7, mean ± SD of three experiments
Description: as §1, §2, §3

[1] = system: HCT-116 colorectal cancer cell; test: MTT cell growth inhibition assay, HCT-116 colorectal cancer cells; assay type: cell-based, human; settings: Homo sapiens, HCT-116; MTT; mean ± SD of three experiments
Description: as §1, §2, §3

[2] = system: BEL-7402 liver cancer cell; test: MTT cell growth inhibition assay, BEL-7402 liver cancer cells; assay type: cell-based; settings: Homo sapiens, mean ± SD of three experiments, read-out: IC50 BEL-7402 Hepatoma Cells
Description: as §1, §2, §3

[3] = system: MCF-10A normal breast cell; test: MTT cell growth inhibition assay, MCF-10A normal breast cells; assay type: cell-based; settings: Homo sapiens, mean ± SD of three experiments, read-out: IC50 MCF-10A Normal Breast Epithelial Cells
Description: as §1, §2, §3

L-02 normal liver cell = test: MTT cell growth inhibition assay, L-02 normal liver cells; assay type: cell-based; settings: Homo sapiens, mean ± SD of three experiments
Description: as §1, §2, §3

[4] = Aqueous solubility in 0.01 M PBS, high throughput UV method; assay type: physicochemical; settings: for solubility thermodynamic at 1.5 h: aqueous phosphate buffer, aqueous buffer, sodium phosphate buffer 0.01 M, pH 7.4, 22 ± 2 °C, mean ± SD
Description: as §1
The aqueous solubility was determined as a previously reported procedure. Put simply, a certain amount of powdered compound was placed in a 2 mL centrifuge tube and mixed with an appropriate volume of aqueous phosphate buffer (10 mM, pH 7.4) to make the whole system supersaturated. The mixtures were sonicated (KQ5200DE numerical control ultrasonic cleaner, Kunshan Ultrasonic Instrument Co., Ltd., SuZhou, China) for 20 min. After sonication, the mixture was allowed to equilibrate at RT (22 ± 2 °C) for 1.5 h with vortex shaking (1200 rpm). Then centrifuged at 3000 rpm for 15 min (1-14k, sigma, Darmstadt, Germany), the supernatant was filtered with a 0.22 µM filter membrane. And then, take 150 µL of filtrate and add it to 96-well UV plate with triplicate. Draw 150 μL of blank solution was added into plate as blank control. The 96-well UV plate prepared above was read on a Synergy HTX Multifunctional Microplate Reader (BioTek, Vermont, USA) at 294 nm. The absorbance of the sample was corrected according to the UV response of the sample and blank solution, and the corrected UV response values were used for solubility calculations by bringing into the standard curve of the compound. […]
1.5. Solubility Assessment
The aqueous solubility was determined as previously reported using the high throughput solubility screens procedure published by Bruno Bard et al [9. 10]. Put simply, a certain amount of powdered compound was placed in a 2 ml centrifuge tube and mixed with an appropriate volume of aqueous phosphate buffer (0.01 M, pH 7.4) to make the whole system supersaturated. The mixtures were sonicated (KQ5200DE numerical control ultrasonic cleaner, Kunshan Ultrasonic Instrument Co., Ltd., China) for 20 min. After sonication, the mixture was allowed to equilibrate at room temperature (22 ± 2°C) for 1.5 h with vortex shaking (1200 rpm). Then the centrifuge tube was put into the centrifuge (1-14k, sigma, Germany), centrifuged with 3000 rpm for 15 minutes, 0.22 µM filter membrane filtration supernatant, then take 150 µl filtrate and add it to 96-well UV plate, with three well for each compound. Draw 150 μL blank solution were added into 96 well-plate as blank control. The 96-well UV […]
plate prepared above was read on a SynergyHTX Multifunctional microplate reader (BioTek, USA) at 338 nm (compounds 12a-12d and 15-20) or 370 nm (compounds 9a-d). The absorbance of the sample was corrected according to the UV response of the sample and blank solution, and the corrected UV responses value were used for solubility calculations by bring into the standard curve of the compound. […]

SMILES | IC50 (AGS gastric cancer cell) [µM] | IC50 (MCF-7 breast cancer cell) [µM] | IC50 [1] [µM] | IC50 [2] [µM] | IC50 [3] [µM] | IC50 (L-02 normal liver cell) [µM] | solubility thermodynamic at 1.5 h [4] [µg/mL] | melting point [°C] | Water solubility (in words) ([4]; Figure 1) | Increase of aqueous solubility compared with 9a ([4]; 0.01 M PBS, ratio to 9a)
COc1cc(/C(C#N)=C/c2ccc(NC(=O)CN3CCCC3)cc2)cc(OC)c1OC [12a3] | 17.9 ± 1.75 | 12.6 ± 0.91 | 2.56 ± 0.58 | 4.63 ± 0.89 | 16.9 ± 1.24 | 11 ± 0.82 | 67.4 ± 2.9 | – | – | –
COc1ccc(/C(C#N)=C/c2ccc(NC(=O)CN3CCN(C)CC3)cc2C)cc1OC [12d1] | 40 ± 3.81 | 33.4 ± 0.84 | 6.67 ± 2.38 | 9.53 ± 0.93 | 54.5 ± 13.2 | 42.4 ± 1.91 | 124 ± 8.7 | – | – | –
COc1cc(/C(C#N)=C/c2ccc(NC(=O)CN3CCN[C@@H](C)C3)cc2)cc(OC)c1OC (as salt: hydrochloride) [compound 17] | – | – | – | – | – | – | – | 196 to 200 | – | –
COc1cc(/C(C#N)=C/c2ccc(C)cc2)cc(OC)c1OC [compound 2, reference compound] | – | – | 0.61 ± 0.16 | – | – | – | 4 | – | Poor water solubility | –
CCN1CCN(CC(=O)Nc2ccc(/C=C(\C#N)c3cc(OC)c(OC)c(OC)c3)c(C)c2)CC1 [12b2] | 15 ± 2.32 | 19.8 ± 3.16 | 6.68 ± 1.1 | 7.42 ± 1.76 | 20.2 ± 2.4 | 22.1 ± 2.05 | 253 ± 30.7 | – | – | –
COc1cc(/C(C#N)=C/c2ccc(NC(=O)CN3CCN(C)CC3)cc2C)cc(OC)c1OC [12b1] | 15.6 ± 0.73 | 22.5 ± 3.6 | 5.25 ± 1.6 | 6.62 ± 2.09 | 15.2 ± 0.66 | 20.3 ± 1.08 | 104 ± 19.8 | – | – | –
COc1cc(/C(C#N)=C/c2ccc(NC(=O)CN3CCOCC3)cc2)cc(OC)c1OC [12a5] | 29.1 ± 1.98 | 48.3 ± 5.41 | 6.87 ± 1.04 | 6.74 ± 1.97 | > 100 | 40.7 ± 5.18 | 15 ± 2.6 | – | – | –
COc1ccc(/C(C#N)=C/c2ccc(NC(=O)CN3CCN(C)CC3)cc2)cc1OC [12c1] | 29.1 ± 1.98 | 33.9 ± 2.22 | 4.4 ± 0.79 | 8.95 ± 1.37 | > 100 | 23.5 ± 3.87 | 124 ± 8.7 | – | – | –
CCN1CCN(CC(=O)Nc2ccc(/C=C(\C#N)c3ccc(OC)c(OC)c3)cc2)CC1 [12c2] | 48.8 ± 2.44 | 31.1 ± 4.38 | 21.6 ± 2.87 | 10.1 ± 2.18 | 29.7 ± 4.56 | 22.1 ± 2.64 | 85.1 ± 13.2 | – | – | –
COc1cc(/C(C#N)=C/c2ccc(NC(=O)CN3CCNC(C)C3)cc2)cc(OC)c1OC.Cl (stereo not shown) [compound 18] | 11.5 ± 2.32 | 12.8 ± 2.96 | 9.73 ± 0.9 | 4.16 ± 0.97 | 14.1 ± 3.71 | 28.4 ± 4.52 | 1050 ± 67.3 | – | – | –
CCN(CC)CC(=O)Nc1ccc(/C=C(\C#N)c2cc(OC)c(OC)c(OC)c2)cc1 [12a4] | 12.6 ± 1.79 | 13.3 ± 2.59 | 5.64 ± 0.15 | 3.81 ± 0.43 | 24.8 ± 4.44 | 69.4 ± 7.3 | 15.5 ± 2.3 | – | – | –
COc1ccc(/C(C#N)=C/c2ccc(N)cc2)cc1OC [9c] | 19.5 ± 3.61 | 62.1 ± 8.12 | 4.05 ± 0.72 | 3.91 ± 0.8 | > 100 | 15.7 ± 1.79 | 4.5 ± 0.6 | – | – | –
CCN1CCN(CC(=O)Nc2ccc(/C=C(\C#N)c3cc(OC)c(OC)c(OC)c3)cc2)CC1 [12a2] | 11.9 ± 2.62 | 14.9 ± 1.32 | 5.37 ± 0.03 | 5.1 ± 0.37 | 25.8 ± 3.73 | 16.6 ± 1.14 | 26940 ± 78.8 | – | – | –
COc1cc(/C(C#N)=C/c2ccc(NC(=O)CN3CCN(CCOCCO)CC3)cc2)cc(OC)c1OC (as salt: hydrochloride) [compound 16] | – | – | – | – | – | – | – | 240 to 243 | – | –
CCN1CCN(CC(=O)Nc2ccc(/C=C(\C#N)c3ccc(OC)c(OC)c3)c(C)c2)CC1 [12d2] | 15.3 ± 3.86 | 28.7 ± 3.14 | 24 ± 2.46 | 21.3 ± 0.71 | 38.4 ± 4.48 | 25.8 ± 2.56 | 85.1 ± 13.2 | – | – | –
COc1cc(/C(C#N)=C/c2ccc(NC(=O)CN3CCN(CCOCCO)CC3)cc2)cc(OC)c1OC [compound 16] | 14.8 ± 3.37 | 31.2 ± 4.73 | 12.6 ± 1.74 | 14.4 ± 2.38 | 18.9 ± 2.95 | 23.4 ± 3.61 | 2500 ± 266 | – | – | more than 231 times
COc1ccc(/C(C#N)=C/c2ccc(N)cc2C)cc1OC [9d, (Z)-3-(4-Amino-2-methylphenyl)-2-(3,4-dimethoxyphenyl)acrylonitrile monohydrochloride] | 16.4 ± 0.42 | > 100 | 5.86 ± 0.77 | 9.72 ± 0.9 | > 100 | 62.1 ± 10.6 | 1.7 ± 0.2 | – | – | –
COc1cc(/C(C#N)=C/c2ccc(NC(=O)CN3CCN(C(C)C)CC3)cc2)cc(OC)c1OC.Cl [compound 15] | 15.3 ± 3.02 | 12.2 ± 0.93 | 8.32 ± 0.3 | 14.7 ± 1.09 | 21 ± 4.73 | 22.6 ± 1.36 | 8620 ± 525 | – | – | –
COc1cc(/C(C#N)=C/c2ccc(NC(=O)CN3CCN[C@@H](C)C3)cc2)cc(OC)c1OC [compound 17] | 22.6 ± 1.45 | 15.6 ± 1.87 | 10.3 ± 1.07 | 15 ± 2.32 | 17.4 ± 3.56 | 28.2 ± 5.16 | 504 ± 117 | – | – | –
